Series [1] has as its target T1, VEGF-A/VEGFR-1 interaction (Homo sapiens, UniProt P17948).
T1 construct: the form consisting of the seven extracellular domains of the receptor fused to the Fc domain of human IgG; purchased R&D Systems 321-FL (receptor); 293-VE (VEGF-A)
The series can be described thus: ELISA competition assay of VEGF-A binding to VEGFR-1. Conditions: tetrameric peptides of formula (II) with Y2 different from D-cysteine; read-out: IC50 of inhibition of the interaction VEGF-A/VEGFR-1. The method, then:
The binding reaction was conducted for one hour at 37° C., followed by one hour at room temperature. At the end of the binding and/or competition step, anti-human-PIGF biotinylated polyclonal antibodies (R&D Systems, cat No. BAF264) or anti-human-VEGF-A (R&D Systems, cat No. BAF293) were added to the wells at the concentration of 300 ng/ml in PBET. After one hour of incubation at 37° C. followed by one hour at room temperature, an HRP-conjugated avidin-streptavidin system (Vectastain elite ABC kit) and a substrate for HRP (o-phenylenediamine-Sigma, cat No. P1526) were added to the wells. Quantization was performed by determining the absorbance at 490 nm. Any inhibitory activity of the peptides was expressed in terms of % of residual binding, comparing the data obtained for the binding of PIGF or VEGF-A to the receptors in the presence of the tetrameric peptides with those in the absence of the same. iVR1 represented the positive control of the inhibition of the PIGF/VEGFR-1 or VEGF-A/VEGFR-1 interaction.

Series [2] is described as follows: Serum protease stability in 10% fetal calf serum (RP-HPLC). Type of series: in vitro ADME. Conditions: 10% FCS. The method, then: The stability of the peptide iVR1-Cys in 10% serum (fetal calf serum, FCS) in a 50 mM phosphate buffer solution, pH 7.3, at 168 h was determined as described by Ponticelli et al., relying on a method based on RP-HPLC chromatography, described therein [Ponticelli et al., J Biol Chem. 2008 Dec. 5; 283 (49): 34250-9].
The reference curve was constructed by dissolving the compound in DMSO at increasing concentrations of between 0.1 μmol/L and 1000 μmol/L in order to have complete dissolution. The concentration of the molecule left in contact with 10% FCS at the initial concentration of 10 μmol/L was then determined by drawing 3 aliquots at time t=0, then every hour in the first 12 hours and then at 24, 72, 120, and 168 h. The aliquots were diluted 1:1 with acetic acid 0.1 M in order to detach any peptide bound to the albumin, centrifuged to remove any precipitated materials and analyzed by RP-HPLC under the conditions reported in Ponticelli et al. The amount of residual peptide detected in the aliquots, expressed as a percentage relative to the initial amount, was plotted as a function of time. The results are shown in Table VII as the mean of the three determinations±the standard deviation (SD).

T1 sequence (P17948 27-758 limits assumed): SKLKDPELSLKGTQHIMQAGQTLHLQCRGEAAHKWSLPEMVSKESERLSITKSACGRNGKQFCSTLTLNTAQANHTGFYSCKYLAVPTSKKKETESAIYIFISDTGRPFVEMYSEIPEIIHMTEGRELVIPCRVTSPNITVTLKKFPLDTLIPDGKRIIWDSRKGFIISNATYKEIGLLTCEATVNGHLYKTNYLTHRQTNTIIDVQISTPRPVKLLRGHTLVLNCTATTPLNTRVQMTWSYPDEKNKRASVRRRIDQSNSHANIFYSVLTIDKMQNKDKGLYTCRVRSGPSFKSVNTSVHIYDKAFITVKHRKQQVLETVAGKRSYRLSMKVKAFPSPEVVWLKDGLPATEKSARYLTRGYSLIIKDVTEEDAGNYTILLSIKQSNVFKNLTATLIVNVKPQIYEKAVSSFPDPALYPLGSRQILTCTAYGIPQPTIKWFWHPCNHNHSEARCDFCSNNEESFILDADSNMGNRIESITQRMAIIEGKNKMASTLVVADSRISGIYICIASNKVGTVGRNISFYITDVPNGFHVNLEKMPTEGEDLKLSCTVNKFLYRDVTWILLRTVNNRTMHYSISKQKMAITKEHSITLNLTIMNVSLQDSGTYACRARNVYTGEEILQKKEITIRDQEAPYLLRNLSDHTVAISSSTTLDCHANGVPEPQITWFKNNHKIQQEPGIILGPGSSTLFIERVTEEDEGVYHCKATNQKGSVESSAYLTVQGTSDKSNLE

With L-methionine sulfone, the IC50 in series [1] was 4620 ± 1400 nM.

Consider L-cysteine, for which the IC50 in series [1] was 2030 ± 200 nM.

As to `NC(=O)[C@@H](CS)NC(=O)C(CCCCNC(=O)C(CCCCNC(=O)[C@H](CC1CCCCC1)NC(=O)C(CSCc1ccccc1)NC(=O)[C@H](N)CCC(=O)O)NC(=O)[C@H](CC1CCCCC1)NC(=O)C(CSCc1ccccc1)NC(=O)[C@H](N)CCC(=O)O)NC(=O)C(CCCCNC(=O)[C@H](CC1CCCCC1)NC(=O)C(CSCc1ccccc1)NC(=O)[C@H](N)CCC(=O)O)NC(=O)[C@H](CC1CCCCC1)NC(=O)C(CSCc1ccccc1)NC(=O)[C@H](N)CCC(=O)O` (some centres unmarked) [iVR1-Cys], in series [2] (0 h, 50 mM phosphate buffer pH 7.3, initial 10 μmol/L), the “% residual peptide ± SD” value is 101 ± 4%. In addition, the remaining at 1 h, 10 μmol/L in series [2] (cattle (fetal calf), 10% fetal calf serum in phosphate buffer, 1 h, pH 7.3, read-out: % residual peptide ± SD) is 100 ± 11%. In addition, in series [2] (cattle (fetal calf), 10% fetal calf serum in phosphate buffer, 2 h, pH 7.3, read-out: % residual peptide ± SD), the remaining at 2 h, 10 μmol/L worked out at 99 ± 7%. Besides, the remaining at 3 h, 10 μmol/L in series [2] (cattle (fetal calf), 10% fetal calf serum in phosphate buffer, 3 h, pH 7.3, read-out: % residual peptide ± SD) amounted to 98 ± 5%. For the same molecule, the remaining at 4 h, 10 μmol/L in series [2] (cattle (fetal calf), 10% fetal calf serum in phosphate buffer, 4 h, pH 7.3, read-out: % residual peptide ± SD) worked out at 97 ± 4%. Also, the remaining at 5 h, 10 μmol/L in series [2] (cattle (fetal calf), 10% fetal calf serum in phosphate buffer, 5 h, pH 7.3, read-out: % residual peptide ± SD) came out at 96 ± 5%. Further, the remaining at 6 h, 10 μmol/L in series [2] (cattle (fetal calf), 10% fetal calf serum in phosphate buffer, 6 h, pH 7.3, read-out: % residual peptide ± SD) is 99 ± 6%. Moreover, in series [2] (cattle (fetal calf), 10% fetal calf serum in phosphate buffer, 7 h, pH 7.3, read-out: % residual peptide ± SD), the remaining at 7 h, 10 μmol/L is 95 ± 8%. For the same molecule, the remaining at 8 h, 10 μmol/L in series [2] (cattle (fetal calf), 10% fetal calf serum in phosphate buffer, 8 h, pH 7.3, read-out: % residual peptide ± SD) amounted to 96 ± 5%. Besides, in series [2] (cattle (fetal calf), 10% fetal calf serum in phosphate buffer, 9 h, pH 7.3, read-out: % residual peptide ± SD), the remaining at 9 h, 10 μmol/L was found to be 95 ± 6%. The remaining at 10 h, 10 μmol/L in series [2] (cattle (fetal calf), 10% fetal calf serum in phosphate buffer, 10 h, pH 7.3, read-out: % residual peptide ± SD) came to 94 ± 10%. Further, the remaining at 11 h, 10 μmol/L in series [2] (cattle (fetal calf), 10% fetal calf serum in phosphate buffer, 11 h, pH 7.3, read-out: % residual peptide ± SD) was found to be 94 ± 8%. Further, the remaining at 12 h, 10 μmol/L in series [2] (cattle (fetal calf), 10% fetal calf serum in phosphate buffer, 12 h, pH 7.3, read-out: % residual peptide ± SD) is 93 ± 4%. The remaining at 24 h, 10 μmol/L in series [2] (cattle (fetal calf), 10% fetal calf serum in phosphate buffer, 24 h, pH 7.3, read-out: % residual peptide ± SD) was 93 ± 6%. The remaining at 72 h, 10 μmol/L in series [2] (cattle (fetal calf), 10% fetal calf serum in phosphate buffer, 72 h, pH 7.3, read-out: % residual peptide ± SD) is 92 ± 7%. For the same molecule, in series [2] (cattle (fetal calf), 10% fetal calf serum in phosphate buffer, 120 h, pH 7.3, read-out: % residual peptide ± SD), the remaining at 120 h, 10 μmol/L was found to be 91 ± 5%. Moreover, the remaining at 168 h, 10 μmol/L in series [2] (cattle (fetal calf), 10% fetal calf serum in phosphate buffer, 168 h, pH 7.3, read-out: % residual peptide ± SD) came out at 92 ± 8%.

As to D-serine, in series [1], the IC50 is 2430 ± 3000 nM.
